Experimental findings from patent US20230101743A1, “SUBSTITUTED TRIAZINE COMPOUNDS AND USES THEREOF” (MUSC FOUNDATION FOR RESEARCH DEVELOPMENT, priority 2020, published 2023) are described below.

For test [1], the system named is apolipoprotein B (APOB-100). In words: Secreted APOB ELISA in human iPSC-derived hepatocyte-like cells. Type of test: cell-based. The protocol:
D. Human iPSC-derived hepatocytes were treated with DL-1 with concentrations ranging from 0.0325 to 12 or 48 μg/mL for 24 hours. Pre-drug and Post-drug medium were collected for analysis. Albumin and APOB levels were determined via ELISA assay. All secreted proteins were compared to non-treated cells. […] Data are shown as mean±SEM of four replicates (n=4); * p<0.01.
E. Human iPSC-derived hepatocytes were treated with 2 μg/mL of DL-1 from 8 to 48 hours. Albumin, APOPA, and APOB level in the culture medium were determined via ELISA. All secreted proteins were compared to non-treated cells. In FIG. 5, accumulated APOB in the medium from different time-point was measured and normalized to albumin level. […]
F. Twenty-one compounds that are structurally similar to DL-1 were tested with the concentration of 2 μg/mL in human iPSC-derived hepatocytes for 24 hours. Secreted APOB levels were determined and compared to the DMSO-treated group. […] Data is shown as mean±SEM of replicates (n=8) and as quantification value of each derivative. […]
Differentiated human hepatocyte-like cells were treated with representative compounds of the invention (2 μg/mL) or equivalent amount of DMSO (0.5%) as the placebo group for 24 hours. […] The secreted level of apolipoprotein B (APOB-100), the core protein of LDL-C, were determined via enzyme-linked immunosorbent assay (ELISA). […]
(In an ELISA, binding on a coated surface is turned into a signal by an enzyme label.)

Test [2] concerns APOB mRNA. In words: APOB mRNA level by real-time qPCR. As to conditions: 2 μg/mL, 24 hours. The test is classed as cell-based, human. The protocol:
G. Human iPSC-derived hepatocytes were treated with 2 μg/mL of DL-1 or equivalent concentration of DMSO for 24 hours. […] (A) APOB mRNA level was determined using real-time qPCR. (B) Intracellular APOB, LDLR, and HSP90 protein levels were determined via immunoblot. (C) Quantification of biological replicates of immunoblots on samples treated as in (B). Data are shown as mean±SEM of four replicates (n=4).
C. Human iPSC-derived hepatocytes (iPSC-Heps) were treated with 2 μg/mL of DL-1 or equivalent concentration of DMSO for 24 hours. In FIG. 7A, APOB mRNA level was determined using real-time qPCR. In FIG. 7B Intracellular APOB, LDLR, and HSP90 protein levels were determined via immunoblot; Quantification of biological replicates of immunoblots. Data are shown as mean±SD of four replicates (n=4). In FIG. 12A LDL uptake assay was performed by pre-treating cells with 2 μg/mL of DL-1, 20 μM of Atorvastatin, and equivalent concentration of DMSO for 24 hours followed by 4 hours of pHrodo-LDL exposure; LDL endocytosis was determined and quantified by fluorescence image; data are shown as mean±SD of triplicates (n=3). […]
Human iPSC-derived hepatocytes (Day 20) were treated with 2 μg/mL of DL-1 for 24 hours. […] Quantitative real-time PCR was performed on a BioRad CFX384 real-time PCR machine.
In general terms: Quantitative PCR measures a nucleic acid by following its amplification.

With `Sc1nc(S)nc(Nc2ccc(Nc3ccccc3)cc2)n1` (racemic) [DL-1, 6-{[4-(phenylamino)phenyl]amino}-1,3,5-triazine-2,4-dithiol], the “APOB level in culture medium, time course” value in test [1] (2 μg/mL, 8 to 48 hours) was “reduces APOB level in a time-dependent manner”. For the same molecule, the “APOB secretion level, dose-response” value in test [1] (0.0325 to 12 or 48 μg/mL, 24 hours) was “reduces APOB secretion level in a dose-response manner”. Further, the “APOB mRNA level” value in test [2] was “no impact on APOB mRNA and intracellular protein levels”.
